Several values for one entry are separate records, joined by “and”; a condition that tells them apart may be missing. Identical values can stand only once.
Experiments:
[1] = test system: Ps. aeruginosa; test: Two-dimensional microtiter checkerboard, MIC and FIC of EDTA in 50 mM Tris and antibiotics; assay type: cell-based, Pseudomonas aeruginosa
Method: (§1) Sabath, L. D, Antimicrob. Agents and Chem. 210-217. (1967) and Sparks et al., Vet. Res. Comm. 18, 241-249 (1994), incorporated herein by reference in their entireties. […] Then 0.05 ml of an 18-hour old culture of a test organism, containing 10^6 colony-forming units (CFU) ml, were added to each well. Controls for the culture and media were included in each plate. Plates were covered and incubated at 37° C. for 18-24 hours. […] To generate isobolograms, FICs of the two test solutions were plotted individually on the x-axis and y-axis to determine the effect of combining the two test solutions on bacterial growth. A line that curves away from the zero point and the coordinates indicated antagonism. […] Sabath, L. D, Antimicrob. Agents and Chem. 210-217. (1967), and incorporated herein by reference in their entireties. A numerical score or Fractional Inhibitory Concentration (FIC) index was determined.

[2] = test system: Staph. aureus; test: as above; assay type: cell-based, Staphylococcus aureus
Method: as §1

[3] = test system: surface ulcers of Koi; test: Treatment of Koi suffering from surface ulcers (Example 2); assay type: in vivo, Koi (Cyprinus carpio); details: antibiotics injected directly into the fish, before the bath treatment
Method: All fish were housed in a communal “hospital tank” before treatment and moved to an isolation tank after each treatment. The temperature of the bath was adjusted to that of the hospital tank temperature, 24° C., and adequate aeration was supplied to the treatment tank.

[4] = test system: Ent. faecalis; test: Two-dimensional microtiter checkerboard, MIC and FIC of EDTA in 50 mM Tris and antibiotics; assay type: cell-based, Enterococcus faecalis
Method: as §1

[5] = test system: Aeromonas sobria; test: MIC and FIC of EDTA in 50 mM Tris and neomycin, Aeromonas isolated from ulcerated fish; assay type: cell-based; details: A. sobria
Method: (§2) Sabath, L. D, Antimicrob. Agents and Chem. 210-217. (1967) and Sparks et al., Vet. Res. Comm. 18, 241-249 (1994), incorporated herein by reference in their entireties.
(§3) Then 0.05 ml of an 18-hour old culture of a test organism, containing 10^6 colony-forming units (CFU) ml, were added to each well. Controls for the culture and media were included in each plate. Plates were covered and incubated at 37° C. for 18-24 hours.
(§4) To generate isobolograms, FICs of the two test solutions were plotted individually on the x-axis and y-axis to determine the effect of combining the two test solutions on bacterial growth. A line that curves away from the zero point and the coordinates indicated antagonism. […] Sabath, L. D, Antimicrob. Agents and Chem. 210-217. (1967), and incorporated herein by reference in their entireties.
(§5) A numerical score or Fractional Inhibitory Concentration (FIC) index was determined. The FIC index is equal to the sum of the values of FIC for the individual drugs: [formula]
(§6) An FIC index greater than 1.0 indicated an antagonistic interaction, an FIC index of 1.0 indicated addition, and an FIC index of less than or equal to 0.5 indicated synergism between the two test agents.

[6] = test system: Aeromonas caviae; test: as above; assay type: cell-based; details: A. caviae
Method: as §2, §3, §4, §5, §6

[7] = test system: Pseudomonas aeruginosa; test: Antibiotic resistance profile; assay type: cell-based; details: Pseudomonas aeruginosa test strain; note: key: R = resistant; I = intermediate; S = sensitive
[8] = test system: Enterococcus faecalis; test: Antibiotic resistance profile; assay type: cell-based; details: Enterococcus faecalis test strain; note: key: R = resistant; I = intermediate; S = sensitive
[9] = test system: Staphylococcus aureus; test: Antibiotic resistance profile; assay type: cell-based; details: Staphylococcus aureus test strain; note: key: R = resistant; I = intermediate; S = sensitive
[10] = test system: Aeromonas hydrophila; test: MIC and FIC of EDTA in 50 mM Tris and neomycin, Aeromonas isolated from ulcerated fish; assay type: cell-based; details: A. hydrophila
Method: as §2, §3, §4, §5, §6

[11] = test system: Staphylococcus aureus; test: Minimal Bactericidal Concentration (MBC), EDTA and neomycin in 50 mM Tris; assay type: cell-based
[12] = test system: Enterococcus faecalis; test: as above; assay type: cell-based
[13] = test system: Pseudomonas aeruginosa; test: as above; assay type: cell-based

Compound	MIC, antibiotic individually administered ([1]; Ps. aeruginosa, alone) [µg/mL]	MIC, antibiotic individually administered ([2]; Staph. aureus, alone) [µg/mL]	Healing of visible ulcers [3]	MIC, antibiotic individually administered ([4]; Ent. faecalis, alone) [µg/mL]	Antibiotic resistance profile [7]	Antibiotic resistance profile [8]	Antibiotic resistance profile [9]	also measured
NCC[C@H](O)C(=O)N[C@@H]1C[C@H](N)[C@@H](O[C@H]2O[C@H](CN)[C@@H](O)[C@H](O)[C@H]2O)[C@H](O)[C@H]1O[C@H]1O[C@H](CO)[C@@H](O)[C@H](N)[C@H]1O [Amikacin, amikacin, reference compound]	1	120	failed to heal visible ulcers	2000				
CC1(C)S[C@@H]2[C@H](NC(=O)[C@H](N)c3ccccc3)C(=O)N2[C@H]1C(=O)O [Ampicillin, ampicillin, reference compound]	490	240		1				
C[C@H]1[C@H](NC(=O)/C(=N\OC(C)(C)C(=O)O)c2csc(N)n2)C(=O)N1S(=O)(=O)O [Azactam]			failed to heal visible ulcers					
CCN1CCN(c2cc3c(cc2F)c(=O)c(C(=O)O)cn3C2CC2)CC1 [Baytril]			failed to heal visible ulcers					
O=C(N[C@H](CO)[C@H](O)c1ccc([N+](=O)[O-])cc1)C(Cl)Cl [Chloramphenicol, chloramphenicol, reference compound]		390		400				
O=C(O)CN(CCN(CC(=O)O)CC(=O)O)CC(=O)O [EDTA, ethylenediaminetetracetic acid]								MIC, EDTA in 50 mM Tris alone [5]: 15.6; MIC, EDTA in 50 mM Tris alone [6]: <0.49; MIC, individually administered EDTA ([1]; Ps. aeruginosa, EDTA in 50 mM Tris, alone): 1250 µM; MIC ([1]; Pseudomonas aeruginosa, read-out: MIC, individually administered EDTA): 1250 µM; MIC, individually administered EDTA ([2]; Staph. aureus, EDTA in 50 mM Tris, alone): 1000 µM; MIC ([2]; Staphylococcus aureus, read-out: MIC, individually administered EDTA): 1000 µM; MIC, individually administered EDTA ([4]; Ent. faecalis, EDTA in 50 mM Tris, alone): 15630 µM; MIC ([4]; Enterococcus faecalis, read-out: MIC, individually administered EDTA): 15600 µM
CN(C)[C@@H]1C(O)=C(C(N)=O)C(=O)[C@@]2(O)C(O)=C3C(=O)c4c(O)cccc4[C@@](C)(O)[C@H]3[C@H](O)[C@@H]12 [Oxytetracycline, oxytetracycline, reference compound]	3	0.1		50				
CN[C@H](CC(C)C)C(=O)N[C@H]1C(=O)N[C@@H](CC(N)=O)C(=O)N[C@H]2C(=O)N[C@H]3C(=O)N[C@H](C(=O)N[C@H](C(=O)O)c4cc(O)cc(O)c4-c4cc3ccc4O)[C@H](O)c3ccc(c(Cl)c3)Oc3cc2cc(c3O[C@@H]2O[C@H](CO)[C@@H](O)[C@H](O)[C@H]2O[C@H]2C[C@](C)(N)[C@H](O)[C@H](C)O2)Oc2ccc(cc2Cl)[C@H]1O [Va, vancomycin]					R	R	S	
gentamicin [Gm]					I	R	S	
neomycin [reference compound]	1000	3130		3130	R	R	R	MIC, neomycin alone [10]: 200 µg/mL; MIC, neomycin alone [5]: 12.5 µg/mL; MIC, neomycin alone [6]: 12.5 µg/mL; Decrease of MBC value when combined compared to individually administered ([11]; Staph. aureus, EDTA and neomycin combined): about 50% and 50%; MBC, neomycin co-administered ([11]; Staphylococcus aureus, co-administered with EDTA in 50 mM Tris): 1560 µg/mL; MBC, neomycin individually administered ([11]; Staphylococcus aureus, in 50 mM Tris): 3130 µg/mL; Decrease of MBC value when combined compared to individually administered ([12]; Ent. faecalis, EDTA and neomycin combined): 75%; MBC, neomycin co-administered ([12]; Enterococcus faecalis, co-administered with EDTA in 50 mM Tris): 6250 µg/mL; MBC, neomycin individually administered ([12]; Enterococcus faecalis, in 50 mM Tris): 25000 µg/mL; Decrease of MBC value when combined compared to individually administered ([13]; Ps. aeruginosa, EDTA and neomycin combined): 99.2%; MBC, neomycin co-administered ([13]; Pseudomonas aeruginosa, co-administered with EDTA in 50 mM Tris): 40 µg/mL; MBC, neomycin individually administered ([13]; Pseudomonas aeruginosa, in 50 mM Tris): 5000 µg/mL
